The text below walks through data of BindingDB's records for doi:10.1038/nchembio.2334 (University of North Carolina, 2017).

One may read the EC50 as the concentration that produces a half-maximal response.

The target in test [1] is T1, Mas-related G-protein coupled receptor member X2 (Homo sapiens, UniProt Q96LB1).
T1 sequence (Q96LB1 whole entry): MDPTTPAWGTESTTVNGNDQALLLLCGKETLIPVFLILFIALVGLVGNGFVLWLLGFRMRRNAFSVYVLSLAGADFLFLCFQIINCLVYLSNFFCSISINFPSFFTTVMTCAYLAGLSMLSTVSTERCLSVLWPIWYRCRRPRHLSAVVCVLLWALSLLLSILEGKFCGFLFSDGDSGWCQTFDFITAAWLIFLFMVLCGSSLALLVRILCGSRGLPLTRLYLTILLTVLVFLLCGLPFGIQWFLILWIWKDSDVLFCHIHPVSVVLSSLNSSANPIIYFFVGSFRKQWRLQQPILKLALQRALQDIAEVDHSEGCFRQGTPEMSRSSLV
The experiment in a line: Intracellular Calcium Mobilization Assay. The conditions noted are these: pH 7.4; 30 °C. On the procedure:
MRGPRX2 stable cells were maintained in DMEM containing 10% FBS, 100 μg/ml hygromycin B, and 15 μg/ml blasticidin. For the calcium mobilization assay, cells were plated into glass bottomed, poly-L-lysine coated, black 384 well plates at a density of 20,000 cells/well in medium containing 1% dialyzed FBS, 1 μg/ml tetracycline, 100 IU/ml penicillin and 100 μg/ml streptomycin and incubated 24 h. Following tetracycline induction, medium was removed and cells were loaded with 20 μl/well of 1× FLIPR Calcium dye (Molecular Devices) and 2.5 mM probenic acid, for 1 h in a humidified environment at 37 °C with 5% CO2. For mast cell calcium experiments, cells were seeded at a density of 50,000 cells/well in Tyrode's buffer containing 1× calcium dye and incubated for 1 h before treatment and analysis. After dye loading, baseline was measured for 10 s before drug treatment, and then cells were treated with 10 μl of 3× concentrated drug in drug buffer (1× HBSS with 20 mM HEPES and 2.5 mM probenic acid, pH 7.4) in 16 point concentration response curves from 100 μM to 0.003 nM.
(Calcium assays in cells follow changes in intracellular calcium, usually with a dye or a luminescent sensor.)

The target of test [2] is T1, Mas-related G-protein coupled receptor member X2. The experiment in a line: PRESTO-Tango Assay. The conditions noted are these: pH 7.4; 30 °C. On the procedure: HTLA cells (HEK-T cells stably expressing a β-arrestin2-TEV fusion protein and a tTa-dependent luciferase reporter) were maintained in DMEM (Corning) containing 10% FBS, 2 μg/ml puromycin and 100 μg/ml hygromycin B in a humidified atmosphere at 37 °C with 5% CO2. In brief, cells were plated to 50% confluency and transfected with a codon-optimized MRGPRX-Tango construct using the calcium phosphate method53. The next day, transfected cells were transferred to glass-bottomed, poly-L-lysine-coated white 384-well plates at a density of 20,000 cells/well. The following day, cells were treated with 10 μM concentrations of small molecules (in quadruplicate) diluted in drug buffer (1× HBSS with 20 mM HEPES and 0.3% bovine serum albumin, pH 7.4) and incubated for 18-24 h. After drug incubation, medium was removed and 20 μl of Bright-Glo (Promega; diluted 20-fold) was added to each well and incubated 15 min at room temperature.

As to `COc1ccc2c3c1O[C@H]1[C@@H](OC(C)=O)C=C[C@H]4[C@@H](C2)N(C)CC[C@@]341` [6-Acetylcodeine], the EC50 in test [1] was 25 µM; in test [2], 19 µM.

Take `CC(=O)O[C@H]1C=C[C@H]2[C@H]3Cc4ccc(O)c5c4[C@@]2(CCN3C)[C@H]1O5` [6-Acetylmorphine]: the EC50 in test [1] was 21 µM; in test [2] it was 12 µM.

Regarding `C[C@@H]1C2Cc3ccc(O)cc3[C@]1(C)CCN2` [(6R,11S)-6,11-Dimethyl-1,2,3,4,5,6-hexahydro-2,6-methano-benzo[d]azocin-8-ol], a half-maximal effect in test [2] (EC50) was put at 50 µM.

For the compound `C[C@H]1C2Cc3ccc(O)cc3[C@@]1(C)CCN2` [(6S,11R)-6,11-Dimethyl-1,2,3,4,5,6-hexahydro-2,6-methano-benzo[d]azocin-8-ol], the EC50 in test [1] is 13 µM; in test [2], 14 µM.

Take `C[C@@H]1[C@@H]2Cc3ccc(O)cc3[C@@]1(C)CCN2C` [(+)-Metazocine]: the EC50 in test [1] amounted to 9.3 µM; in test [2], 7.2 µM.

In the case of `CN1CC[C@@]2(c3cccc(O)c3)Cc3nc4ccccc4cc3C[C@@H]2C1` [(+)-TAN-67], the 50% effective concentration (EC50) stood at 0.29 µM in test [1] and 0.43 µM in test [2].

`COc1ccc2c(c1)[C@@]13CCCC[C@@H]1[C@@H](C2)N(C)CC3` [Dextromethorphan]: the EC50 in test [1] worked out at 5.9 µM; in test [2], 3.2 µM.

On to `CN1CC[C@]23CCCC[C@@H]2[C@H]1Cc1ccc(O)cc13` [Dextrorphan], for which the EC50 in test [1] was found to be 3.9 µM; in test [2], 4.2 µM.

For `CC[C@H](C)[C@H](NC(=O)[C@H](CCCNC(=N)N)NC(=O)[C@H](CCCNC(=N)N)NC(=O)[C@H](CC(C)C)NC(=O)[C@H](Cc1ccccc1)NC(=O)CNC(=O)CNC(=O)[C@@H](N)Cc1ccc(O)cc1)C(=O)N[C@@H](CCCNC(=N)N)C(=O)N1CCC[C@H]1C(=O)N[C@@H](CCCCN)C(=O)N[C@@H](CC(C)C)C(=O)N[C@@H](CCCCN)C(=O)N[C@@H](Cc1c[nH]c2ccccc12)C(=O)N[C@@H](CC(=O)O)C(=O)N[C@@H](CC(N)=O)C(=O)N[C@@H](CCC(N)=O)C(=O)O` [Dynorphin A (1-17)], the values for the EC50 in test [1] and in test [2] were 2.3 µM and 21 µM, respectively.

In the case of `CC(C)C[C@H](NC(=O)[C@H](Cc1ccccc1)NC(=O)CNC(=O)CNC(=O)[C@@H](N)Cc1ccc(O)cc1)C(=O)N[C@@H](CCCNC(=N)N)C(=O)N[C@@H](CCCNC(=N)N)C(=O)N[C@@H](CCC(N)=O)C(=O)N[C@@H](Cc1ccccc1)C(=O)N[C@@H](CCCCN)C(=O)N[C@H](C(=O)N[C@H](C(=O)N[C@H](C(=O)O)[C@H](C)O)C(C)C)C(C)C` [Dynorphin B (1-13)], the values for the EC50 in test [1] and in test [2] were 6.5 µM and 33 µM, respectively.

As for `CN1CC[C@@]23CCCC[C@H]2[C@@H]1Cc1ccc(O)cc13` [Levorphanol], the EC50 in test [1] was determined as 13 µM; in test [2] it was 22 µM.

Regarding `CCC(=O)O[C@](Cc1ccccc1)(c1ccccc1)[C@H](C)CN(C)C` [PROPOXYPHENE], the concentration giving a half-maximal response (EC50) in test [1] came out at 32 µM; in test [2], 15 µM.

Turning to `COC1=CC=C2[C@H]3Cc4ccc(OC)c5c4[C@@]2(CCN3C)[C@H]1O5` [Thebaine], the EC50 in test [1] is 76 µM; in test [2], 11 µM.
